Reference: patent US6686393B1, “Pharmaceutical compositions having antiviral activity against human cytomegalovirus” (Murdock International Corporation, priority 1990, dated 2004)
Where two headings read alike, the source gives them in different places.

Experiments:
[1] = tested on: murine cytomegalovirus, strain Smith MSGV; test: Antiviral test (plaque reduction) versus murine cytomegalovirus, strain Smith MSGV, in 3T3 cells; format: cell-based; settings: Example 8
[2] = tested on: human cytomegalovirus (HCMV), strain AD-169; test: Antiviral test (plaque reduction) versus HCMV, strain AD-169, in MRC-5 cells; format: cell-based; settings: for Number of Plaques: average of two wells; for inhibition at 0.1 µg/mL: Human betaherpesvirus 5, AD169, MRC5, 0.1 μg/ml; for inhibition at 0.32 µg/mL: Human betaherpesvirus 5, AD169, MRC5, 0.32 μg/ml; for inhibition at 1 µg/mL: Human betaherpesvirus 5, AD169, MRC5, 1.0 μg/ml
[3] = tested on: 3T3 cells; settings: mouse
[4] = tested on: HCMV, strain C8805-37 (DHPG-resistant); test: microbe, parasite or virus in culture; format: cell-based, human cytomegalovirus
[5] = tested on: MRC-5 cells
[6] = 0.32 μg/ml (second line so printed, r16, below 0.1)
[7] = Example 1, DMSO stock, read-out: % Inhibition
[8] = Example 2, read-out: Percent Inhibition of Plaque Numbers (Compared to Virus Controls)
[9] = Human betaherpesvirus 5, MRC5, read-out: Percent Inhibition Compared to Controls

Cc1cc(O)c2c(=O)c3c(O)cc(O)c4c5c(O)cc(O)c6c(=O)c7c(O)cc(C)c8c1c2c(c34)c(c78)c65 [Hypericin, hypericin]
% Reduction ([1]; 0.1 μg/ml): 0%
Number of Plaques ([1]; 0.1 μg/ml): 19
% Reduction ([1]; 0.32 μg/ml (row r14)): 0%
Number of Plaques ([1]; 0.32 μg/ml (row r14)): 22
% Reduction [1, 6]: 0%
Number of Plaques [1, 6]: 25
% Reduction ([1]; 1.0 μg/ml): 0%
Number of Plaques ([1]; 1.0 μg/ml): 19
% Reduction ([1]; 3.2 μg/ml): 0%
Number of Plaques ([1]; 3.2 μg/ml): 15
% Reduction ([1]; 10 μg/ml): 100%
Number of Plaques ([1]; 10 μg/ml): 0
Number of Plaques ([2]; 0.0032 μg/ml, Example 1, DMSO stock): 72
Number of Plaques ([2]; 0.1 μg/ml, Example 1, DMSO stock): 72
Number of Plaques ([2]; 0.32 μg/ml, Example 1, DMSO stock): 53
Number of Plaques ([2]; 1.0 μg/ml, Example 1, DMSO stock): 53
Number of Plaques ([2]; 3.2 μg/ml, Example 1, DMSO stock): 6
Number of Plaques ([2]; 10 μg/ml, Example 1, DMSO stock): 0
inhibition at 0.0032 µg/mL ([2]; Human betaherpesvirus 5, AD169, MRC5, 0.0032 μg/ml, Example 1, DMSO stock): 9%
inhibition at 0.01 µg/mL ([2]; Human betaherpesvirus 5, AD169, MRC5, 0.01 μg/ml, Example 2, read-out: Percent Inhibition of Plaque Numbers (Compared to Virus Controls)): 0%
inhibition at 0.032 µg/mL ([2]; Human betaherpesvirus 5, AD169, MRC5, 0.032 μg/ml, Example 2, read-out: Percent Inhibition of Plaque Numbers (Compared to Virus Controls)): 0%
inhibition at 0.1 µg/mL [2, 7]: 9%
inhibition at 0.1 µg/mL [2, 8]: 0%
inhibition at 0.32 µg/mL [2, 7]: 33%
inhibition at 0.32 µg/mL [2, 8]: 0%
inhibition at 1 µg/mL [2, 7]: 33%
inhibition at 1 µg/mL [2, 8]: 63%
inhibition at 3.2 µg/mL ([2]; Human betaherpesvirus 5, AD169, MRC5, 3.2 μg/ml, Example 1, DMSO stock, read-out: % Inhibition): 92%
inhibition at 10 µg/mL ([2]; Human betaherpesvirus 5, AD169, MRC5, 10 μg/ml, Example 1, DMSO stock, read-out: % Inhibition): 100%
Activity in initial screening against HCMV in vitro ([2]; initial screening, in words): active
CD50 [3]: >10 µg/mL
inhibition at 10 µg/mL ([4]; Human betaherpesvirus 5, MRC5, 96 h, read-out: Percent Inhibition Compared to Controls): 98%
inhibition at 0.01 µg/mL [4, 9]: 0%
inhibition at 0.032 µg/mL [4, 9]: 0%
inhibition at 0.1 µg/mL [4, 9]: 0%
inhibition at 0.32 µg/mL [4, 9]: 18%
inhibition at 1 µg/mL [4, 9]: 52%
inhibition at 3.2 µg/mL [4, 9]: 93%
CD50 ([5]; Example 1, DMSO stock): ≈10 μg/ml
CD50 ([5]; Example 3, cells exposed 4 days): ˜10 μg/ml
